According to patent US20110021631A1, “Method of preparing stabilized pharmaceutical compositions comprising active ingredients susceptible to conversion to alternate polymorph forms” (LEK PHARMACEUTICALS D.D., priority 2004, published 2011):
“Also recorded” adds a separate entry of the source.

Legend:
[1] = forms as named in WO 01/43723; cited from earlier work
[2] = Polymorph analysis by X-ray powder diffraction (XRPD) after wet granulation / mixing of pravastatin sodium form LEK; format: physicochemical
Method: References to 2Θ values are to those measured using CuKα radiation. Samples are measured on apparatus Siemens D-5000 by reflex technique at two conditions: • a. Samples with high amount of pravastatin sodium (more than 30%): CuKα radiation, range from 2° to 37° 2Θ, step 0.04° 2Θ, integration time 1 second, slots V20 and 0.6 mm. • b. Samples with low amount of pravastatin sodium (less than 30%): CuKα radiation, range from 3° to 12° 2Θ, step 0.04° 2Θ, integration time 15 second, slots V20 and 0.6 mm.

| Compound | polymorph conversion by treating with alcohol [1] | conversion on granulation with granulating liquid comprising a binder (PVP) ([2]; PVP in ethanol, in some experiments) | conversion to another polymorph form on granulation with alcohol alone ([2]; alcohol (absolute ethanol or aqueous ethanol) as granulating liquid, absence of other ingredients) | precrystallization of dry mixture ([2]; dry mixture of pravastatin sodium and microcrystalline cellulose, 2 hours at 60° C.) | stability of Lek form in wet granulation ([2]; mass ratio pravastatin sodium to microcrystalline cellulose higher or equal to 1:1 and pravastatin sodium to ethanol higher or equal to 1:1, preferably 1:0.5) | precrystallization in wet granulation ([2]; pravastatin sodium:microcrystalline cellulose = 1:0.5, pravastatin sodium and ethanol 1:0.4) | polymorph form in the presence of a high amount of microcrystalline cellulose and granulating liquid ([2]; wet granulation with ethanol) |
| --- | --- | --- | --- | --- | --- | --- | --- |
| CC[C@H](C)C(=O)O[C@H]1C[C@H](O)C=C2C=C[C@H](C)[C@H](CC[C@@H](O)C[C@@H](O)CC(=O)O)[C@H]21 [pravastatin sodium form D, pravastatin sodium] | convert to forms A, H, H1, I, J, K | – | – | – | – | – | – |
| CC[C@H](C)C(=O)O[C@H]1C[C@H](O)C=C2C=C[C@H](C)[C@H](CC[C@@H](O)C[C@@H](O)CC(=O)O)[C@H]21 [pravastatin sodium] | – | partial conversion | does not convert to any other polymorph form; also recorded: does not cause the precrystallization | does not cause any precrystallization | stable | no precrystallization occurs | precrystallizes to form D |
